Measurements published in PubChem BioAssay AID2039 (NMMLSC, 2009).
Calls of active or inactive are those of the source. The rule behind the calls is not given here.

Target: Ras-related C3 botulinum toxin substrate 1 (Homo sapiens) (UniProt P63000)
Assay: activated mutant Rac1 GTP binding inhibitors, SAR follow-up, biochemical, additional analogs, multiplex bead flow cytometry (AID 2039)
Conditions: Multiplex flow cytometry bead GTP-binding assay; for Ki: measured here: Ki for Rac1 nucleotide binding

O=Nc1c(-c2c(O)[nH]c3c(Br)cccc23)[nH]c2ccccc12
EC50: inactive

COc1ccc(S(=O)(=O)n2c(N)c(C#N)c(-c3ccccc3)c2C(=O)c2ccc(Br)cc2)cc1
EC50: inactive

COc1ccc2cc(CC(=O)O)ccc2c1
EC50: inactive

O=C1N=c2ccccc2=C1c1[nH]c(=O)[nH]c1O
EC50: inactive
Ki: 1060 nM

O=C(C#Cc1ccccc1)c1ccccc1[N+](=O)[O-]
EC50: inactive

COc1ccc(S(=O)(=O)n2c(N)c(C#N)c(-c3cncc(Br)c3)c2C(=O)c2ccccc2)cc1
EC50: inactive
Ki: 1060 nM

CC(C(=O)O)c1cccc(Oc2ccccc2)c1 (configuration not stated)
EC50: inactive

O=Nc1c(-c2c(O)[nH]c3ccccc23)[nH]c2ccccc12
EC50: inactive

O=C1C(c2c(O)[nH]c3c(Br)cccc23)=Nc2ccccc21
EC50: inactive
Ki: 2510 nM

O=C(C#Cc1ccccc1)c1ccc([N+](=O)[O-])cc1
EC50: 8370 nM
Ki: 760 nM

O=C1N=c2ccccc2=C1c1[nH]c(=S)[nH]c1O
EC50: inactive
Ki: 640 nM

O=C(C#Cc1ccccc1)c1ccccc1
EC50: inactive

O=C1Nc2cccc(Br)c2/C1=C1/Cc2ccccc2C1=O
EC50: inactive

O=C1C(c2c(O)[nH]c3c(F)cccc23)=Nc2ccccc21
EC50: inactive

O=C1C(c2c(O)[nH]c3c(Cl)cccc23)=Nc2ccccc21
EC50: inactive

CC(=O)Oc1ccccc1C(=O)O
EC50: inactive

O=Nc1c(-c2c(O)[nH]c3c(F)cccc23)[nH]c2ccccc12
EC50: inactive
Ki: 2870 nM

COc1cc(-c2c(C#N)c(N)n(S(=O)(=O)c3c(C(C)C)cc(C(C)C)cc3C(C)C)c2C(=O)c2ccccc2)cc(OC)c1OC
EC50: inactive
Ki: 6050 nM

CSc1ccc(/C=C2/C(C)=C(CC(=O)O)c3cc(F)ccc32)cc1
EC50: inactive
Ki: 4850 nM

O=Nc1c(-c2c(O)[nH]c3ccc(Br)cc23)[nH]c2ccccc12
EC50: inactive
Ki: 2980 nM

O=C1C(c2c(O)[nH]c3ccc(Br)cc23)=Nc2ccccc21
EC50: inactive
Ki: 1110 nM

O=C1C(c2c(O)[nH]c3ccccc23)=Nc2ccccc21
EC50: inactive

O=C1Nc2c(Br)cccc2/C1=C1/Cc2ccccc2C1=O
EC50: inactive

CCCCS(=O)(=O)n1c(N)c(C#N)c(-c2cc(OC)c(OC)c(OC)c2)c1C(=O)c1ccccc1
EC50: inactive

COc1ccc(-c2c(C#N)c(N)n(S(C)(=O)=O)c2C(=O)c2ccccc2)cc1Br
EC50: inactive

N#Cc1c(-c2ccc(Cl)cc2)c(C(=O)c2ccccc2)n(S(=O)(=O)c2ccc([N+](=O)[O-])cc2)c1N
EC50: inactive
Ki: 540 nM

CC1=C(CC(=O)O)c2cc(F)ccc2/C1=C/c1ccc(S(C)=O)cc1 (configuration not stated)
EC50: inactive
Ki: 4240 nM

O=Nc1c(-c2c(O)[nH]c3c(Cl)cccc23)[nH]c2ccccc12
EC50: inactive

O=C1Nc2ccccc2/C1=C1/Cc2ccccc2C1=O
EC50: inactive

COc1ccc(S(=O)(=O)n2c(N)c(C#N)c(-c3cc(Br)c(OC)c(OC)c3)c2C(=O)c2ccccc2)cc1
EC50: inactive
